Experimental data as given in patent US5332726A, “Antithrombotic peptides and pseudopeptides” (Rhone-Poulenc Rorer Pharmaceuticals Inc., priority 1992, dated 1994).

Tests used:
[1] = target: thrombin-stimulated platelets (Homo sapiens, UniProt P05106+P08514); assay: Fibrinogen-Binding Assay (125I-fibrinogen binding to platelets); conditions: 125I-fibrinogen 0.176 μmol/liter, thrombin-stimulated platelets; read-out: Inhibition of 125I-Fibrinogen Binding to Platelets IC50
Experimental: Platelets are washed free of plasma constituents by the albumin density-gradient technique of Walsh, P. N., et al., Br. J. Haematol. […] After these additions, the final platelet count in the mixture is 1×10^11 /liter. After incubation for an additional 30 minutes at 22°-25° C., bound and free ligand are separated by centrifuging 50 μl of the mixture through 300 μl of 20% sucrose at 12,000×g for 4 minutes. The platelet pellet is then separated from the rest of the mixture to determine platelet-bound radioactivity. Nonspecific binding is measured in mixtures containing an excess of unlabeled ligand. […] The IC50 is derived by plotting residual fibrinogen binding against the logarithm of the sample compound's concentration.

[2] = target: fixed activated platelets (Homo sapiens, UniProt P05106+P08514); assay: Platelet Aggregation Assay (fibrinogen-mediated aggregation of fixed-activated platelets); type: cell-based; conditions: for IC50: fixed activated platelets, human fibrinogen 250 μg/ml, read-out: Inhibition of Fibrinogen Mediated Platelet Aggregation IC50; for inhibition at 25 µM: read-out: Inhibition of Fibrinogen Mediated Platelet Aggregation % inhibition at 25 μM
Experimental: PLATELET AGGREGATION ASSAY
Preparation of Fixed-Activated Platelets
To the activated platelets is added paraformaldehyde to a final concentration of 0.50% and this incubated at room temperature for 30 minutes. The fixed activated platelets are then collected by centrifugation at 650×g for 15 minutes.
Platelet Aggregation Assay
The fixed activated platelets are incubated with a selected dose of the compound to be tested for platelet aggregation inhibition for one minute and aggregation initiated by addition of human fibrinogen to a final concentration of 250 μg/ml. A platelet aggregation profiler Model PAP-4 is used to record the platelet aggregation.

thrombin-stimulated platelets, sequence (P08514 32-1039): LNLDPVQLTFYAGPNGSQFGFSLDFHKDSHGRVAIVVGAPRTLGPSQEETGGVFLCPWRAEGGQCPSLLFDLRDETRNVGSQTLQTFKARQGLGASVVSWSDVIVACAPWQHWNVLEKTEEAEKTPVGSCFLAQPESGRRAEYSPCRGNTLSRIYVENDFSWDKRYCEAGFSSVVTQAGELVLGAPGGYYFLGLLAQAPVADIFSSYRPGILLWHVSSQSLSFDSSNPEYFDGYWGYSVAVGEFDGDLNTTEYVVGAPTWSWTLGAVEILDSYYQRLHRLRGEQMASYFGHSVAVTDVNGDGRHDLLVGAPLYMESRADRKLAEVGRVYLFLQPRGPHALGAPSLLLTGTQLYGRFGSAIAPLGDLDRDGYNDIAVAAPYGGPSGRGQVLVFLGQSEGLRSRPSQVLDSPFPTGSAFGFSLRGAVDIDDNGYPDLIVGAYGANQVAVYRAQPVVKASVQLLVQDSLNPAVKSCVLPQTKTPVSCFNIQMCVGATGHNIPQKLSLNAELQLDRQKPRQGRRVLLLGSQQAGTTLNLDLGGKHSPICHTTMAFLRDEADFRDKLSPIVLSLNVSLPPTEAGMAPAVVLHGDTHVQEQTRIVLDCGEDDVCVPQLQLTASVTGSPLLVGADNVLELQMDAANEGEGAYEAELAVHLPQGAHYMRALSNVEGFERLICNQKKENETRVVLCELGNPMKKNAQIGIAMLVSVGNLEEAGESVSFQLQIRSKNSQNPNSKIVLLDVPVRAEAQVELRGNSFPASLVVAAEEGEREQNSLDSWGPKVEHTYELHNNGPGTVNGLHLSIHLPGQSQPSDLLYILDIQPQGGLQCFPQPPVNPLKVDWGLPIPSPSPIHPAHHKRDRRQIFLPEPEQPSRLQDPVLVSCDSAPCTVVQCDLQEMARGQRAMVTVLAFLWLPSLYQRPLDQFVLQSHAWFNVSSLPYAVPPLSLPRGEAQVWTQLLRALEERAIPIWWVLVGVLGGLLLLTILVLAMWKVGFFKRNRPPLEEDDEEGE
thrombin-stimulated platelets, sequence (P05106 27-788): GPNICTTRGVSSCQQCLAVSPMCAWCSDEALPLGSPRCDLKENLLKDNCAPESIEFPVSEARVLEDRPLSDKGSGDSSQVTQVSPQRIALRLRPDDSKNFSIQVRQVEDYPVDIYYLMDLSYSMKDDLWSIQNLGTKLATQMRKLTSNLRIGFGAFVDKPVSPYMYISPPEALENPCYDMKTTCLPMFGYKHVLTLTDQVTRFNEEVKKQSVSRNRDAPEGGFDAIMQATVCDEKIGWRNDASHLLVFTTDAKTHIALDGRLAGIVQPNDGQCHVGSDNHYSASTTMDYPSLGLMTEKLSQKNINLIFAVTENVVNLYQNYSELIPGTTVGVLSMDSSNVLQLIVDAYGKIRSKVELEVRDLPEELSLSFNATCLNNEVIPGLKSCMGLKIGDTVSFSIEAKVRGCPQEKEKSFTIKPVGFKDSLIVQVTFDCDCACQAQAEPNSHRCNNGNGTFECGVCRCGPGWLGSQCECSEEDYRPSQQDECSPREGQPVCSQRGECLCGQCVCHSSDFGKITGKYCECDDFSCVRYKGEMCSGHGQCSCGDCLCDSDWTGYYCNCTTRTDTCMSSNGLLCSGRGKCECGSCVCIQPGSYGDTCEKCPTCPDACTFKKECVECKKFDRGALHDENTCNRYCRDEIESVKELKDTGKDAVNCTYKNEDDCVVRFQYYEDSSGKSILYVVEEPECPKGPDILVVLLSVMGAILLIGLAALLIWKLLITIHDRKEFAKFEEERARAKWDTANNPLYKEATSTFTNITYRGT
fixed activated platelets, sequence (P08514 32-1039): as the sequence (P08514 32-1039) above
fixed activated platelets, sequence (P05106 27-788): as the sequence (P05106 27-788) above

| SMILES | IC50 [1] [µM] | IC50 [2] [µM] | inhibition at 25 µM [2] [%] |
| --- | --- | --- | --- |
| N=C(N)NCCCCCC=CC(=O)N[C@@H](CC(=O)O)C(=O)N[C@@H](CCCNC(=N)N)C(=O)O [8-Guanidinooct-2-enoyl-L-aspartyl-L-arginine] | 0.58 | 0.63 | 90 |
| CC(C)[C@H](NC(=O)[C@H](CC(=O)O)NC(=O)C=CCCCCCNC(=N)N)C(=O)O [8-Guanidinooct-2-enoyl-L-aspartyl-L-valine] | 0.84 | 0.29 | 96 |
| CC(C)CNC(=O)[C@H](CC(=O)O)NC(=O)CCCCCCCNC(=N)N [8-Guanidinooctanoyl-L-aspartic acid-α-isobutylamide] | 14.5 | 7.8 | 81 |
| N=C(N)NCCCCCCCC(=O)N[C@@H](CC(=O)O)C(=O)NCCCCNC(=N)N [8-Guanidinooctanoyl-L-aspartyl-(des-carboxy)-L-arginine] | 0.99 | 1.9 | 91 |
| N=C(N)NCCCCCCCC(=O)N[C@@H](CC(=O)O)C(=O)N[C@@H](CCCCN)C(=O)O [8-Guanidinooctanoyl-L-aspartyl-L-lysine] | 0.78 | 1.6 | 93 |
| N=C(N)NCCCCCCCC(=O)N[C@@H](CC(=O)O)C(=O)N[C@@H](Cc1ccccc1)C(=O)O [8-Guanidinooctanoyl-L-aspartyl-L-phenyl-alanine] | 0.2 | 0.69 | 96 |
| CC(C)[C@H](NC(=O)[C@H](CC(=O)O)NC(=O)CCCCCCCNC(=N)N)C(=O)O [8-Guanidinooctanoyl-L-aspartyl-L-valine] | 2.8 | 2.7 | 89 |
| N=C(N)NCCCCCCCC(=O)N[C@@H](CC(=O)O)C(=O)N[C@@H](CCCNC(=N)N)C(=O)O [8-Guanidinooctanoyl-L-aspartyl-arginine] | 0.33 | 2.2 | 94 |
| CC(C)[C@H](NC(=O)[C@H](CC(=O)O)NC(=O)CCCCCCCCn1ccnc1)C(=O)O [9-(Imidazol-1-yl)-nonanoyl-L-aspartyl-L-valine] | 0.5 | 3.4 | 96 |
| CC(C)[C@H](NC(=O)[C@H](CC(=O)O)NC(=O)/C=C/CCCCCCNC(=N)N)C(=O)O [9-Guanidinonon-2-(E)-enoyl-L-aspartyl-L-valine] | 0.43 |  | 24 |
| COC(=O)[C@](CCCNC(=N)N)(Cc1ccccc1)NC(=O)[C@H](CC(=O)O)NC(=O)CCCCCCCCNC(=N)N [9-Guanidinononanoyl-L-aspartyl-(S)-α-benzyl arginine methyl ester] | 20 | 13.3 | 69 |
| N=C(N)NCCCCCCCCC(=O)N[C@@H](CC(=O)O)C(=O)NCCCCNC(=N)N [9-Guanidinononanoyl-L-aspartyl-(des-carboxy)-L-arginine] | 0.52 | 4.4 | 84 |
| CC[C@@H](C)[C@@H](NC(=O)[C@H](CC(=O)O)NC(=O)CCCCCCCCNC(=N)N)C(=O)N[C@@H](CCCNC(=N)N)C(=O)O [9-Guanidinononanoyl-L-aspartyl-D-isoleucyl-L-arginine] | 10.2 | 13.1 | 75 |
| CC(C)CNC(=O)[C@H](CCCNC(=N)N)NC(=O)[C@H](CC(=O)O)NC(=O)CCCCCCCCNC(=N)N [9-Guanidinononanoyl-L-aspartyl-L-arginine isobutyl amide] | 3 | 2.2 | 89 |
| CCC(C)COC(=O)[C@H](CCCNC(=N)N)NC(=O)[C@H](CC(=O)O)NC(=O)CCCCCCCCNC(=N)N (stereo partly drawn) [9-Guanidinononanoyl-L-aspartyl-L-arginine-2-methyl-butylester] | 0.12 | 0.73 | 97 |
| CC(C)CCOC(=O)[C@H](CCCNC(=N)N)NC(=O)[C@H](CC(=O)O)NC(=O)CCCCCCCCNC(=N)N [9-Guanidinononanoyl-L-aspartyl-L-arginine-3-methylbutyl ester] | 0.15 | 1.7 | 97 |
| N=C(N)NCCCCCCCCC(=O)N[C@@H](CC(=O)O)C(=O)N[C@@H](CCCNC(=N)N)C(=O)OC1CCCCC1 [9-Guanidinononanoyl-L-aspartyl-L-arginine-cyclohexylester] | 0.26 | 0.82 | 91 |

| SMILES | IC50 [1] [µM] | IC50 [2] [µM] | inhibition at 25 µM [2] [%] |
| --- | --- | --- | --- |
| N=C(N)NCCCCCCCCC(=O)N[C@@H](CC(=O)O)C(=O)N[C@@H](CCCNC(=N)N)C(=O)O [9-Guanidinononanoyl-L-aspartyl-L-arginine] | 0.13 | 0.26 | 97 |
| N=C(N)NCCCCCCCCC(=O)N[C@@H](CC(=O)O)C(=O)N[C@@H](CCCNC(=N)N)C(=O)N[C@@H](CCCNC(=N)N)C(=O)O [9-Guanidinononanoyl-L-aspartyl-L-arginyl-L-arginine] | 15 | 15 | 68 |
| CC[C@H](C)[C@H](NC(=O)[C@H](CC(=O)O)NC(=O)CCCCCCCCNC(=N)N)C(=O)O [9-Guanidinononanoyl-L-aspartyl-L-isoleucine] | 0.38 | 4.2 | 93 |
| CC[C@H](C)[C@H](NC(=O)[C@H](CC(=O)O)NC(=O)CCCCCCCCNC(=N)N)C(=O)N[C@H](CCCNC(=N)N)C(=O)O [9-Guanidinononanoyl-L-aspartyl-L-isoleucyl-D-arginine] | 15 | 2 | 97 |
| CCCC[C@H](NC(=O)[C@H](CC(=O)O)NC(=O)CCCCCCCCNC(=N)N)C(=O)N[C@@H](CCCNC(=N)N)C(=O)O [9-Guanidinononanoyl-L-aspartyl-L-norleucyl-L-arginine] | 0.21 | 0.3 | 95 |
| N=C(N)NCCCCCCCCC(=O)N[C@@H](CC(=O)O)C(=O)N[C@@H](Cc1ccccc1)C(=O)N[C@@H](CCCNC(=N)N)C(=O)O [9-Guanidinononanoyl-L-aspartyl-L-phenylalanine-L-arginine] | 6 | 0.32 | 98 |
| CC[C@H](C)[C@H](NC(=O)[C@H](CCCNC(=N)N)NC(=O)[C@H](CC(=O)O)NC(=O)CCCCCCCCNC(=N)N)C(=O)O [9-Guanidinononanoyl-L-aspartyl-arginyl-isoleucine] | 1.2 | 2.4 | 93 |
| N=C(N)NCCCCCCCCC(=O)N[C@@H](CC(=O)O)C(=O)NCC(=O)N[C@@H](CCCNC(=N)N)C(=O)O [9-Guanidinononanoyl-L-aspartyl-glycyl-L-arginine] | 7 | 2.2 | 85 |
| CC[C@H](C)[C@H](NC(=O)CNC(=O)[C@H](CC(=O)O)NC(=O)CCCCCCCCNC(=N)N)C(=O)O [9-Guanidinononanoyl-L-aspartyl-glycyl-L-isoleucine] | 40 | 25 | 54 |
| CC[C@H](C)[C@H](NC(=O)[C@H](CC(=O)O)NC(=O)CCCCCCCCNC(=N)N)C(=O)NCCCCNC(=N)N [9-Guanidinononanoyl-L-aspartyl-isoleucine-4-guanidinobutyl amide] | 0.24 | 5.7 | 95 |
| CC[C@H](C)[C@H](NC(=O)[C@H](CC(=O)O)NC(=O)CCCCCCCCNC(=N)N)C(=O)N[C@@H](CCCNC(=N)N)C(=O)O [9-Guanidinononanoyl-L-aspartyl-isoleucyl-arginine] | 0.37 | 0.67 | 94 |
| CCC(CC)(NC(=O)[C@H](CC(=O)O)NC(=O)CCCCCCCCNC(=N)N)C(=O)N[C@@H](CCCNC(=N)N)C(=O)O [9-Guanidinononanoyl-L-aspartyl-α,α-diethyl-glycyl-L-arginine] | 40 | > 25 | 20 |
| N=C(N)NCCCCCCCCC(=O)N[C@@H](CC(=O)O)C(=O)NC(Cc1ccccc1)(Cc1ccccc1)C(=O)O [9-Guanidinononanoyl-L-aspartyl-α-benzylphenylalanine] | > 200 | > 25 | 10 |
| N=C(N)NCCCCCCCCC(=O)N[C@@H](CC(=O)O)C(=O)NCCC(=O)N[C@@H](CCCNC(=N)N)C(=O)O [9-Guanidinononanoyl-L-aspartyl-β-alanyl-L-arginine] | 0.64 | 1.5 | 93 |
| CC[C@H](C)[C@H](NC(=O)CCNC(=O)[C@H](CC(=O)O)NC(=O)CCCCCCCCNC(=N)N)C(=O)O [9-Guanidinononanoyl-L-aspartyl-β-alanyl-L-isoleucine] | 54 | 999 | 9 |
| CC(C)[C@H](NC(=O)[C@H](CC(=O)O)NC(=O)CCCCCCCCN)C(=O)O [9-aminononanoyl-L-aspartyl-L-valine] | 30 | 19.1 | 10.1 |
| CC(C)COC(=O)[C@H](CCCNC(=N)N)NC(=O)[C@H](CC(=O)O)NC(=O)CCCCCCCCNC(=N)N [9-guanidinononanoyl-L-aspartyl-L-arginine isobutyl ester] | 0.625 | 0.54 | 97 |
